Assay results from US10034836B2, “Formulations of guanylate cyclase C agonists and methods of use” (SYNERGY PHARMACEUTICALS, INC., priority 2008, dated 2018).
Where a SMILES comes first, the peptide text is derived from it. Bridges are numbered along the chain shown (N, C = ends).

Tests used:
[1] = Stability in simulated intestinal fluid (SIF), biological activity by cGMP synthesis in T84 cells; assay type: in vitro ADME
Description: FIG. 2A: Biological activity of SP-304 incubated for varying lengths of time in simulated intestinal fluid (SIF). SP-304 samples were incubated for 0, 30, 60, 90, 150, and 300 min, respectively, and then tested for their ability to stimulate cGMP synthesis in T84 cells. The cGMP stimulation activity in the sample at 0 min of incubation time in SIF was taken as 100% biological activity. The activities of the other SP-304 incubation samples were calculated as the percentage of activity relative to that of the 0 min sample. Data points shown are the average of triplicate measurements±SD.
(§1) FIG. 7A: Biological activity of SP-333 incubated for varying lengths of time in simulated intestinal fluid (SIF). SP-333 samples incubated for 0, 5, 10, 30, 60, and 120 min, respectively, were tested for their ability to stimulate cGMP synthesis in T84 cells. The control sample marked as C120 was produced by incubating SP-333 with heat inactivated SIF for 120 min. Samples from the incubations were removed and heated at 95° C. for 5 min to inactivate digestive enzymes and then used to stimulate cyclic GMP synthesis in T84 cells. The cGMP stimulation activity in the sample at 0 min of incubation time in SIF was taken as 100% biological activity. The activities of the other SP-304 incubation samples were calculated as the percentage of activity relative to that of the 0 min sample. Data points shown are the average of triplicate measurements±SD.
as §1, with “FIG. 7B:” for “FIG. 7A:”, “of SP-332” for “of SP-333”, “incubating SP-332” for “incubating SP-333”
FIG. 7C: Biological activity of SP-304 incubated for varying lengths of time in simulated intestinal fluid (SIF). SP-304 samples incubated for 0, 10, and 60 min, respectively, were tested for their ability to stimulate cGMP synthesis in T84 cells. The control samples marked as C0 and C60 were produced by incubating SP-304 with heat inactivated SIF for 0 and 60 min, respectively. Samples from the incubations were removed and heated at 95° C. for 5 min to inactivate digestive enzymes and then used to stimulate cyclic GMP synthesis in T84 cells. The cGMP stimulation activity in the sample at 0 min of incubation time in SIF was taken as 100% biological activity. The activities of the other SP-304 incubation samples were calculated as the percentage of activity relative to that of the 0 min sample. […]
FIGS. 7G-1-7G-5: Incubation of SP-333 with SIF for 2, 6, 12 and 24 hrs. Effect of SIF digestion on the activity of SP-333 in T84 stimulation assay was determined (FIG. 7G-1) and samples were also analyzed by HPLC (FIGS. 7G2-5). […]
The stability of SP-304 was also evaluated after incubation with simulated intestinal fluid (SIF) by measuring its biological activity and by HPLC analyses (FIGS. 2A & 2B). […]

[2] = assay type: in vitro ADME
Description: FIG. 1B: Schematic representation of HPLC chromatographic analyses of SP-304 samples after incubation with SGF for 0 and 120 min, respectively. The arrows show the elution position of SP-304.
The stability of SP-304 in the presence of simulated gastric fluid (SGF) was determined by biological activity measurements and HPLC analyses (FIGS. 1A & 1B). SP-304 (final concentration of 8.5 mg/ml) was incubated in SGF (Proteose peptone (8.3 g/liter; Difco), D-Glucose (3.5 g/liter; Sigma), NaCl (2.05 g/liter; Sigma), KH2PO4 (0.6 g/liter; Sigma), CaCl2 (0.11 g/liter), KCl (0.37 g/liter; Sigma), Porcine bile (final 1× concentration 0.05 g/liter; Sigma) in PBS, Lysozyme (final 1× concentration 0.10 g/liter; Sigma) in PBS, Pepsin (final 1× concentration 0.0133 g/liter; Sigma) in PBS). SGF was made on the day of the experiment and the pH was adjusted to 2.0±0.1 using HCl or NaOH as necessary. After the pH adjustment, SGF is filter sterilized with 0.22 μm membrane filters. SP-304 (final concentration of 8.5 mg/ml) was incubated in SGF at 37° C. for 0, 15, 30, […] and 120 min, respectively, in triplicate aliquots. Following incubations, samples were snap frozen in dry ice then stored in a −80° C. freezer until assayed in duplicate.
Here, aliquots of the two samples were analyzed by HPLC using a previously developed method for analyzing SP-304 peptide. […]

cynomolgus monkeys = test: Repeated daily oral dose for 28 days in cynomolgus monkeys, stool consistency; settings: cynomolgus monkey, in vivo, 10 mg/kg
Description: FIG. 19: Determination of SP-304 dose that produced diarrhea in monkeys. Two groups of monkeys, male and female, were treated with a single dose of SP-304 per day continuously for 28 days (for each group, 0 and 75 mg/kg, n=5; 1, 10 mg/kg, n=4). Stool consistency and bowel frequency were noted every day. Results are presented as cumulative score for 28 days. The scoring used for stool consistency was as follows: 0: No stool, 1: Normal stool, 2: Loose/mushy stool and 3: Diarrhea/watery stool.
Male (n=4) and female (n=4) monkeys were given a daily dose (1 or 10 or 75 mg/kg body weight) of SP-304 repeatedly for 28 days. Effect of treatment on stool consistency was recorded three times a day. […] Therefore, SP-304 was used at 10 mg/kg body weight in the subsequent experiments.

Structure (SMILES): CC(C)C[C@H](NC(=O)[C@@H]1CSSC[C@@H]2NC(=O)[C@H](CC(C)C)NC(=O)[C@H](CCC(=O)O)NC(=O)[C@@H](NC(=O)[C@H](CCC(=O)O)NC(=O)[C@H](CC(=O)O)NC(=O)[C@@H](N)CC(N)=O)CSSC[C@H](NC(=O)[C@H](C)NC(=O)[C@H](C(C)C)NC(=O)[C@H](CC(N)=O)NC(=O)[C@H](C(C)C)NC2=O)C(=O)N[C@@H]([C@@H](C)O)C(=O)NCC(=O)N1)C(=O)O [SP-304, Asn^1-Asp^2-Glu^3-Cys^4-Glu^5-Leu^6-Cys^7-Val^8-Asn^9-Val^10-Ala^11-Cys^12-Thr^13-Gly^14-Cys^15-Leu^16] (H-NDECELCVNVACTGCL-OH; disulfide 4-12, 7-15)
- loss of potency following digestion with SIF [1]: about 30%
- reduction in biological activity after incubation in SIF [1]: 30%
- reduction of biological activity following incubation in SIF ([1]; pH 6): about 30%
- major HPLC peak following incubation with SGF [2]: did not change
- effect on stool consistency in females (cynomolgus monkeys): severe diarrhea consistently
